Assays:
Mus musculus [1] = experiment: Effective i.p. dose tested for muscle relaxant activity using inclined screen test in mouse (value range= 11.2-16.0 mg/kg); conditions: ip
Gallus gallus [2] = organism: Gallus gallus; experiment: Evaluated for inhibition of AMPA (5 uM) evoked spreading depression in isolated retina prepared from young chicken; type: functional
Mus musculus [3] = experiment: Effective p.o. dose tested for anticonvulsant activity using maximal electroshock seizure model in mouse (value range= 17.9-32.1 mg/kg); conditions: po
Mus musculus [4] = experiment: Effective i.p. dose tested for muscle relaxant activity using inclined screen test in mouse (value range= 29.4-45.2 mg/kg); conditions: ip
Mus musculus [5] = experiment: Effective i.p. dose tested for muscle relaxant activity using inclined screen test in mouse (value range=100-200 mg/kg); conditions: ip
Mus musculus [6] = experiment: Effective p.o. dose tested for anticonvulsant activity using maximal electroshock seizure model in mouse (value range=25-50 mg/kg); conditions: po
Mus musculus [7] = experiment: Effective p.o. dose tested for anticonvulsant activity using maximal electroshock seizure model in mouse (highest test concentration); conditions: po
Gallus gallus [8] = organism: Gallus gallus; experiment: Evaluated for inhibition of AMPA (5 uM) evoked spreading depression in isolated retina prepared from young chicken at 20 uM; type: functional
Mus musculus [9] = experiment: Effective i.p. dose tested for muscle relaxant activity using inclined screen test in mouse (highest test concentration); conditions: ip
Mus musculus [10] = experiment: Effective p.o. dose tested for anticonvulsant activity using maximal electroshock seizure model in mouse (high test concentration); conditions: po
Mus musculus [11] = experiment: Effective p.o. dose tested for anticonvulsant activity using maximal electroshock seizure model in mouse (SMA); conditions: po
Mus musculus [12] = experiment: Effective p.o. dose tested for anticonvulsant activity using maximal electroshock seizure model in mouse; conditions: po
Mus musculus [13] = experiment: Effective p.o. dose tested for anticonvulsant activity using maximal electroshock seizure model in mouse (highest test concentration); conditions: po; remark: listed apart in the source

CC(=O)N1N=C(c2ccc(N)cc2)c2cc3c(cc2C[C@H]1C)OCO3 [TALAMPANEL]
ED50 (Mus musculus [1]): 13.4 mg/kg

Cc1cn2c(n1)Cc1ccc(Cl)cc1C(c1ccc(N)cc1)=N2
IC50 (Gallus gallus [2]): 7.3 µM
ED50 (Mus musculus [3]): 24 mg/kg
ED50 (Mus musculus [4]): 36.5 mg/kg

Nc1ccc(C2=Nn3cc(CO)nc3Cc3ccc(Cl)cc32)cc1
ED50 (Mus musculus [5]): 200 mg/kg
ED50 (Mus musculus [6]): 50 mg/kg
IC50 (Gallus gallus [2]): 5 µM

CC(=O)Nc1ccc(C2=Nn3cc(C(=O)O)nc3Cc3ccc(Cl)cc32)cc1
ED50 (Mus musculus [7]): > 100 mg/kg
Inhibition (Gallus gallus [8]): 33%
ED50 (Mus musculus [9]): > 200 mg/kg

CCOC(=O)c1cn2c(n1)Cc1ccc(Cl)cc1C(c1ccc(N)cc1)=N2
ED50 (Mus musculus [10]): > 100 mg/kg
IC50 (Gallus gallus [2]): 20 µM
ED50 (Mus musculus [9]): > 200 mg/kg

CC(=O)Nc1ccc(C2=Nn3cc(CO)nc3Cc3ccc(Cl)cc32)cc1
ED50 (Mus musculus [11]): > 100 mg/kg

CC(=O)Nc1ccc(C2=Nn3cc(C)nc3Cc3ccc(Cl)cc32)cc1
ED50 (Mus musculus [12]): 56 mg/kg
IC50 (Gallus gallus [2]): > 20 µM
ED50 (Mus musculus [9]): > 200 mg/kg

Nc1ccc(C2=Nn3cc(C(=O)O)nc3Cc3ccc(Cl)cc32)cc1
Inhibition (Gallus gallus [8]): 55%
ED50 (Mus musculus [9]): > 200 mg/kg
ED50 (Mus musculus [13]): > 100 mg/kg

From ChEMBL document CHEMBL1143450, “Potential metabolites of a condensed 2,3-benzodiazepine derivative” (Bioorg Med Chem Lett, 2005)
